In patent US11059801B2, “Methods to induce targeted protein degradation through bifunctional molecules” (Dana-Farber Cancer Institute, Inc., priority 2014, dated 2021):
Like-named read-outs stand apart in the source and are kept apart here.

Tests used:
[1] = molecular target: fusion of mutant FKBP12 to nanoluciferase (Homo sapiens (Human), UniProt P62942+Q96SW2, F36V); assay: FKBP Dual Luciferase Assay (mutant FKBP12, 36V); assay type: cell-based; details: for Dmax: read-out: Max Degradation (dual luciferase, %) FKBP 36V;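 as to all read-outs here: cells exposed to rising degrader concentrations, FKBP12 fusion level read as NLuc/FLuc signal ratio, lower ratio means more degradation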
Experimental: The cells were treated with increasing concentrations of various dFKBPs for 4 hours. The amount of NLuc and FLuc was measured, and the abundance of the FKBP12-HA-NLuc was quantified by calculating the signal ratio of NLuc/FLuc.

[2] = molecular target: IKZF1 adjoined to nanoluciferase (Nluc) (Homo sapiens (Human), UniProt Q13422); assay: IKZF1 Dual Luciferase Assay; assay type: cell-based; details: 4 hours; read-out: Nluc/Fluc IKZF1 IC50
Experimental: Transduced cells were selected with puromycin at 2 μg/mL and expanded. […] Cells were incubated with compound for 4 hours at 37° C., 5% CO2 and then allowed to cool to room temperature. To each plate was added 25 μL of Fluc buffer (200 mM Tris, 15 mM MgSO4, 100 uM EDTA, 1 mM DTT, 1 mM ATP, 200 uM Coenzyme A, 400 uM D-Luciferin, 0.1% Trition X-100).

CRBN-DDB1/BRD4 = CRBN-DDB1/BRD4 (Homo sapiens (Human), UniProt O60885+Q96SW2); assay: CRBN-DDB1/BRD4 Dimerization Assay; assay type: binding; details: for Dimer Amplitude / Dimer Mean: Gaussian fit of dimerization signal; for Dimer SD: Gaussian fit parameter of dimerization signal;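 as to all read-outs here: AlphaScreen proximity signal between GST-tagged BRD4 and CRBN-DDB1 with glutathione donor and nickel chelate acceptor beads, read after 1 hr compound incubation at room temperature, values from Gaussian curve fit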
[3] = FKBP 36V, 4 hours, read-out: DC50 (nM) FKBP 36V

`CC[C@H](C(=O)N1CCCC[C@H]1C(=O)OC(CCc1ccc(OC)c(OC)c1)c1cccc(OCC(=O)NCCCCOc2cccc3c2C(=O)N(C2CCC(=O)NC2=O)C3=O)c1)c1cc(OC)c(OC)c(OC)c1` (stereo partly shown) [dFKBP*-18] was tested, and the DC50 [1, 3] was 6.4 nM and the Dmax ([1]; FKBP 36V, 4 hours) was 80%.

Compound `O=C1CCC(N2C(=O)c3cccc(CNC(=O)C4CC4)c3C2=O)C(=O)N1` [Compound D-22, N-((2-(2,6-dioxopiperidin-3-yl)-1,3-dioxoisoindolin-4-yl)methyl)cyclopropanecarboxamide] has a DC50 [2] of 534 nM.

`CC[C@H](C(=O)N1CCCC[C@H]1C(=O)OC(CCc1ccc(OC)c(OC)c1)c1cccc(OCC(=O)NCCCCCCCC(=O)Nc2cccc3c2C(=O)N(C2CCC(=O)NC2=O)C3=O)c1)c1cc(OC)c(OC)c(OC)c1` (stereo partly shown) [dFKBP*-20] gave a DC50 [1, 3] of 17 nM and a Dmax ([1]; FKBP 36V, 4 hours) of 75.7%.

For `Cc1sc2c(c1C)C(c1ccc(Cl)cc1)=N[C@@H](CC(=O)NCCCOCCOCCOCCCNC(=O)COc1cccc3c1C(=O)N(C1CCC(=O)NC1=O)C3=O)c1nnc(C)n1-2` (stereo partly shown) [dBET9], the “Dimer Amplitude” value (CRBN-DDB1/BRD4) was 16889, the “Dimer Mean” value (CRBN-DDB1/BRD4) was −7.496 and the “Dimer SD” value (CRBN-DDB1/BRD4) was 0.5198.

With `O=C1CCC(N2C(=O)c3ccc(NCc4ccccc4)cc3C2=O)C(=O)N1` [Compound D-25, 5-(benzylamino)-2-(2,6-dioxopiperidin-3-yl)isoindoline-1,3-dione] the DC50 [2] was > 50000 nM.

In the case of `O=C1CCC(N2C(=O)c3ccc(C(=O)NCc4ccccc4)cc3C2=O)C(=O)N1` [Compound D-15, N-benzyl-2-(2,6-dioxopiperidin-3-yl)-1,3-dioxoisoindoline-5-carboxamide], the DC50 [2] was > 50000 nM.

For `Cc1sc2c(c1C)C(c1ccc(Cl)cc1)=N[C@@H](CC(=O)NCCCCCCCCOc1cccc3c1C(=O)N(C1CCC(=O)NC1=O)C3=O)c1nnc(C)n1-2` (stereo partly shown) [dBET21], the “Dimer Amplitude” value (CRBN-DDB1/BRD4) was 758.9, the “Dimer Mean” value (CRBN-DDB1/BRD4) was −6.306 and the “Dimer SD” value (CRBN-DDB1/BRD4) was 1.327.

For `CCN(CC)c1ccc2c(c1)C(=O)N(C1CCC(=O)NC1=O)C2=O` [Compound D-27, 5-(diethylamino)-2-(2,6-dioxopiperidin-3-yl)isoindoline-1,3-dione], the DC50 [2] was > 50000 nM.

`CCN(CC)c1cccc2c1C(=O)N(C1CCC(=O)NC1=O)C2=O` [Compound D-21, 4-(diethylamino)-2-(2,6-dioxopiperidin-3-yl)isoindoline-1,3-dione] was tested, and the DC50 [2] was 140 nM.

`CC[C@H](C(=O)N1CCCC[C@H]1C(=O)O[C@H](CCc1ccc(OC)c(OC)c1)c1cccc(OCC(=O)NCCOCCOCCOc2cccc3c2C(=O)N(C2CCC(=O)NC2=O)C3=O)c1)c1cc(OC)c(OC)c(OC)c1` (stereo partly shown) [dFKBP*-15] gave a DC50 [1, 3] of 28 nM and a Dmax ([1]; FKBP 36V, 4 hours) of 66%.

In the case of `CC[C@H](C(=O)N1CCCC[C@H]1C(=O)OC(CCc1ccc(OC)c(OC)c1)c1cccc(OCC(=O)NCCCCC(=O)Nc2cccc3c2C(=O)N(C2CCC(=O)NC2=O)C3=O)c1)c1cc(OC)c(OC)c(OC)c1` (stereo partly shown) [dFKBP*-16], the DC50 [1, 3] was 99 nM and the Dmax ([1]; FKBP 36V, 4 hours) was 38%.

With `O=C1CCC(N2C(=O)c3cccc([N+](=O)[O-])c3C2=O)C(=O)N1` [Compound D-10, 2-(2,6-dioxopiperidin-3-yl)-4-nitroisoindoline-1,3-dione] the DC50 [2] was > 50000 nM.

With `O=C1CCC(N2C(=O)c3ccc([N+](=O)[O-])cc3C2=O)C(=O)N1` [Compound D-2, 2-(2,6-dioxopiperidin-3-yl)-5-nitroisoindoline-1,3-dione] the DC50 [2] was > 50000 nM.

For `O=C1CCC(N2C(=O)c3cccc(NCc4ccccc4)c3C2=O)C(=O)N1` [Compound D-16, 4-(benzylamino)-2-(2,6-dioxopiperidin-3-yl)isoindoline-1,3-dione], the DC50 [2] was 23.9 nM.

`CC(=O)NCc1cccc2c1C(=O)N(C1CCC(=O)NC1=O)C2=O` [Compound D-23, N-((2-(2,6-dioxopiperidin-3-yl)-1,3-dioxoisoindolin-4-yl)methyl)acetamide] showed a DC50 [2] of 1020 nM.

In the case of `O=C1CCC(N2C(=O)c3ccc(F)cc3C2=O)C(=O)N1` [Compound D-24, 2-(2,6-dioxopiperidin-3-yl)-5-fluoroisoindoline-1,3-dione], the DC50 [2] was > 50000 nM.

`Cc1nc2ccccc2c(=O)n1C1CCC(=O)NC1=O` [Compound D-9, 3-(2-methyl-4-oxoquinazolin-3(4H)-yl)piperidine-2,6-dione] was tested, and the DC50 [2] was 7610 nM.

With `CC[C@@H]1C(=O)N(C)c2cnc(Nc3ccc(C(=O)NCCCCNC(=O)COc4cccc5c4C(=O)N(C4CCC(=O)NC4=O)C5=O)cc3OC)nc2N1C1CCCC1` (stereo partly shown) [dBET2] the “Dimer Amplitude” value (CRBN-DDB1/BRD4) was 20549, the “Dimer Mean” value (CRBN-DDB1/BRD4) was −7.428 and the “Dimer SD” value (CRBN-DDB1/BRD4) was 0.7005.

`O=C1CCC(N2C(=O)c3ccc(C(=O)O)cc3C2=O)C(=O)N1` [Compound D-13, 2-(2,6-dioxopiperidin-3-yl)-1,3-dioxoisoindoline-5-carboxylic acid] was tested, and the DC50 [2] was > 50000 nM.

With `Cc1cccc2c1C(=O)N(C1CCC(=O)NC1=O)C2=O` [Compound D-19, 2-(2,6-dioxopiperidin-3-yl)-4-methylisoindoline-1,3-dione] the DC50 [2] was 111 nM.

With `CC[C@H](C(=O)N1CCCC[C@H]1C(=O)OC(CCc1ccc(OC)c(OC)c1)c1cccc(OCC(=O)NCCCOCCCNC(=O)COc2cccc3c2C(=O)N(C2CCC(=O)NC2=O)C3=O)c1)c1cc(OC)c(OC)c(OC)c1` (stereo partly shown) [dFKBP*-17] the DC50 [1, 3] was 69 nM and the Dmax ([1]; FKBP 36V, 4 hours) was 64%.

For `CC[C@H](C(=O)N1CCCC[C@H]1C(=O)OC(CCc1ccc(OC)c(OC)c1)c1cccc(OCC(=O)NCc2ccc(CNC(=O)COc3cccc4c3C(=O)N(C3CCC(=O)NC3=O)C4=O)cc2)c1)c1cc(OC)c(OC)c(OC)c1` (stereo partly shown) [dFKBP*-21], the DC50 [1, 3] was 15 nM and the Dmax ([1]; FKBP 36V, 4 hours) was 91%.

Compound `CC[C@H](C(=O)N1CCCC[C@H]1C(=O)O[C@H](CCc1ccc(OC)c(OC)c1)c1cccc(OCC(=O)NCCCCCCCCNC(=O)COc2cccc3c2C(=O)N(C2CCC(=O)NC2=O)C3=O)c1)c1cc(OC)c(OC)c(OC)c1` (stereo partly shown) [c1FKBP*-9] has a DC50 ([1]; read-out: DC50 (nM) FKBP 36V, 4 hours) of 3.9 nM.

For `CC(=O)Nc1ccc2c(c1)C(=O)N(C1CCC(=O)NC1=O)C2=O` [Compound D-5, N-(2-(2,6-dioxopiperidin-3-yl)-1,3-dioxoisoindolin-5-yl)acetamide], the DC50 [2] was > 50000 nM.

With `CC(C)Nc1ccc2c(c1)C(=O)N(C1CCC(=O)NC1=O)C2=O` [Compound D-26, 2-(2,6-dioxopiperidin-3-yl)-5-(isopropylamino)isoindoline-1,3-dione] the DC50 [2] was > 50000 nM.

`CC[C@H](C(=O)N1CCCC[C@H]1C(=O)OC(CCc1ccc(OC)c(OC)c1)c1cccc(OCC(=O)NCCCCCCCCCCOc2cccc3c2C(=O)N(C2CCC(=O)NC2=O)C3=O)c1)c1cc(OC)c(OC)c(OC)c1` (stereo partly shown) [dFKBP*-14] showed a DC50 [1, 3] of 57 nM and a Dmax ([1]; FKBP 36V, 4 hours) of 85%.

In the case of `CC[C@H](C(=O)N1CCCC[C@H]1C(=O)O[C@H](CCc1ccc(OC)c(OC)c1)c1cccc(OCC(=O)NCCOCCOc2cccc3c2C(=O)N(C2CCC(=O)NC2=O)C3=O)c1)c1cc(OC)c(OC)c(OC)c1` (stereo partly shown) [dFKBP*-19], the DC50 [1, 3] was 1.7 nM and the Dmax ([1]; FKBP 36V, 4 hours) was 94%.

For `O=C1CCC(N2C(=O)c3cccc(O)c3C2=O)C(=O)N1` [Compound D-1, 2-(2,6-dioxopiperidin-3-yl)-4-hydroxyisoindoline-1,3-dione], the DC50 [2] was > 50000 nM.

In the case of `O=C1CCC(N2C(=O)c3cccc(F)c3C2=O)C(=O)N1` [Compound D-14, 2-(2,6-dioxopiperidin-3-yl)-4-fluoroisoindoline-1,3-dione], the DC50 [2] was > 50000 nM.

For `Cc1nc2ccccc2c(=O)n1C1CC(=O)NC1=O` [Compound D-11, 3-(2-methyl-4-oxoquinazolin-3(4H)-yl)pyrrolidine-2,5-dione], the DC50 [2] was > 50000 nM.

`CC[C@H](C(=O)N1CCCC[C@H]1C(=O)OC(CCc1ccc(OC)c(OC)c1)c1cccc(OCC(=O)NCCCCCCOc2cccc3c2C(=O)N(C2CCC(=O)NC2=O)C3=O)c1)c1cc(OC)c(OC)c(OC)c1` (stereo partly shown) [dFKBP*-13] gave a DC50 [1, 3] of 1.2 nM and a Dmax ([1]; FKBP 36V, 4 hours) of 83%.
